Source: BigSolDB 2.1

CC1=C(O)C(=O)C(C)O1 (configuration not stated)
solubility (mole fraction)
Conditions | 283.15 K | 288.15 K | 293.15 K | 298.15 K | 303.15 K | 308.15 K | 313.15 K
in ethanol | 0.12 | 0.151 | 0.188 | 0.234 | 0.287 | 0.351 | 0.427
in methanol | 0.143 | 0.174 | 0.21 | 0.257 | 0.31 | 0.374 | 0.449
in n-butanol | 0.0954 | 0.124 | 0.156 | 0.196 | 0.247 | 0.307 | 0.382
in n-hexane | 0.0054 | 0.0073 | 0.0096 | 0.0125 | 0.0163 | 0.0211 | 0.0271
in n-propanol | 0.11 | 0.138 | 0.174 | 0.216 | 0.268 | 0.332 | 0.408
in water | 0.0091 | 0.015 | 0.0251 | 0.0408 | 0.0665 | 0.107 | 0.173
